The target of assay [1] is T1, human cloned dopamine D4.2 receptors expressed in CHO-cells (Homo sapiens, UniProt P21917, DEL265-296).
T1 construct: expressed in transfected cells; host or cells: CHO cells
T1 sequence (P21917 with tags, fused parts or gaps DEL265-296): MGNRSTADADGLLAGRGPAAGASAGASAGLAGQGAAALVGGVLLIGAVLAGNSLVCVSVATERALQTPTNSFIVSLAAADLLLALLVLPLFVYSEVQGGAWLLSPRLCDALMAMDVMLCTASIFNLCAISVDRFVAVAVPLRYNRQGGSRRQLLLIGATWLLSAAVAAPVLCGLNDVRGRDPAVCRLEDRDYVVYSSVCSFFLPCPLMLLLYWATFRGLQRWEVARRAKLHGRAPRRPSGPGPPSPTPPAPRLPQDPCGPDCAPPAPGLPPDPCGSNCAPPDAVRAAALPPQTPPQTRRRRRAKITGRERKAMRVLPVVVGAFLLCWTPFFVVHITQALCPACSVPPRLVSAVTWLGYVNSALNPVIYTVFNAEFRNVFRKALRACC
The experiment in a line: Inhibition of binding of [3H]YM-09151-2 to D4.2 receptors. How it is done: Inhibition of Binding of [^3H]YM-09151-2 to D4.2 Receptors
By this method, the inhibition by drugs of the binding of [^3H]YM-09151-2 (0.06 nM) to membranes of human cloned dopamine D4.2 receptors expressed in CHO-cells is determined in vitro. The method is modified from NEN Life Science Products, Inc., technical data certificate PC2533-10/96.

Another assay addresses T2, dopamine D2 receptor (Rattus norvegicus, UniProt P61169).
T2 construct: from tissue
The assay can be described thus: Inhibition of the binding of [3H]Spiperone to D2 receptors. As to the method: Inhibition of the Binding of [^3H]Spiperone to D2 Receptors
The compounds were tested with respect to affinity for the dopamine D2 receptor by determining their ability to inhibit the binding of [^3H]Spiperone to D2 receptors by the method of Hyttel et al. J. Neurochem. 1985, 44, 1615.

For another assay, the target named is T3, D4 receptor (Homo sapiens, UniProt P21917).
T3 sequence (P21917 1-419): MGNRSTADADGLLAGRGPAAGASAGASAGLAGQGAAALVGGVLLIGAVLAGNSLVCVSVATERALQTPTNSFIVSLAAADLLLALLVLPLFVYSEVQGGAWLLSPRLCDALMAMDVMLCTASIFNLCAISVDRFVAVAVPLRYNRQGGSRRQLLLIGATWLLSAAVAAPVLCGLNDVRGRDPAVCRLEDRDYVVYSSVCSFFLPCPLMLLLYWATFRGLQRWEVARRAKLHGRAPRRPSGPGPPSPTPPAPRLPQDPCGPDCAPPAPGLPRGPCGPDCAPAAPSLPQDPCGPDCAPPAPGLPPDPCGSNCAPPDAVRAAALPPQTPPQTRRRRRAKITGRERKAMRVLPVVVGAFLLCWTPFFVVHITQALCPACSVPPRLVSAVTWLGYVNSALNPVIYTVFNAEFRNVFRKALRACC
Particulars: various in vitro efficacy assays, literature; cited from earlier work.

Setting [2] is: inhibition of [3H]Spiperone binding, read-out: D2-Receptor IC50.

Results on eight compounds are retold here after US7105543B2, “4-, 5-, 6- and 7-indole derivatives useful for the treatment of CNS disorders” (H. Lundbeck A/S, priority 2000, dated 2006).

Like-named read-outs stand apart in the source and are kept apart here. Some results are limits rather than exact numbers.

T2 sequence (P61169 whole entry): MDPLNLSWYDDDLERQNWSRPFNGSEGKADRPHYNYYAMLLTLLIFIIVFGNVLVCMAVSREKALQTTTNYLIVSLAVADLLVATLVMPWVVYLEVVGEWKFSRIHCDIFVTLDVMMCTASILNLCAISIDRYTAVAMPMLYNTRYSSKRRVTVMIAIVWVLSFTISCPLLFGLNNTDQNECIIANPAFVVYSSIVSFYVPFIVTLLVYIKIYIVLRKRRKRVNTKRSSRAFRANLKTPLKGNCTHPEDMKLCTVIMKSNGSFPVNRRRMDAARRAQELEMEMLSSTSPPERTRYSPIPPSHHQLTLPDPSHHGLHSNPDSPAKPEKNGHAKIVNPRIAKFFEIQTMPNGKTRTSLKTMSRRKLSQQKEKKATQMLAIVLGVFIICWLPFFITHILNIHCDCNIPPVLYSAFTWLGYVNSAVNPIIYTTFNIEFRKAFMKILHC

Usually IC50 stands for the point on the concentration scale where inhibition reaches its midpoint. For the compound `c1ccc(N2CCN(Cc3ccc4[nH]ccc4c3)CC2)cc1` [Compound 1d, 5-[[4-phenylpiperazin-1-yl]methyl]-1H-indole], the IC50 is 31 nM in assay [1] and 940 nM on dopamine D2 receptor (setting [2]).
The corresponding values for `Clc1ccc(C2=CCN(Cc3ccc4[nH]ccc4c3)CC2)cc1` [Compound 1e, 5-[4-(4-Chlorophenyl)-3,6-dihydro-2H-pyridin-1-ylmethyl]-1H-indole] are 1.4 nM and 190 nM.
Consider `c1cc2cc(CN3CCN(c4ccc5[nH]ccc5c4)CC3)ccc2[nH]1` [Compound 1b, 5-[[4-(5-indolyl)piperazin-1-yl]methyl]-1H-indole], for which the half-inhibitory concentration (IC50) in assay [1] is below 50 nM; at dopamine D2 receptor (setting [2]), 1000 nM. The compound further displayed a D4-receptor, second figure after the slash in the IC50 cell in assay [1] (printed as '<50/89', meaning of the second figure not explained) of 89 nM.
`COc1ccc(N2CCN(Cc3ccc4cc[nH]c4c3)CC2)cc1` [Compound 1g, 6-[[4-(4-methoxyphenyl)piperazin-1-yl]methyl]-1H-indole]: the half-inhibitory concentration (IC50) in assay [1] is 9.1 nM; at dopamine D2 receptor, above 10000 nM.
Regarding `CC(C)Oc1cccnc1N(C)C1CCN(Cc2ccccc2)CC1` [Compound U-101958], the “Functional activity at the D4 receptor (in words)” value on D4 receptor is listed as “partial D4 receptor agonists”.
In the case of `Clc1ccc(N2CCN(Cc3ccc4cc[nH]c4c3)CC2)cc1` [Compound 1f, 6-[[4-(4-chlorophenyl)piperazin-1-yl]methyl]-1H-indole], at dopamine D2 receptor, the half-inhibitory concentration (IC50) was above 10000 nM.
For `Clc1ccc(N2CCN(Cc3ccc4[nH]ccc4c3)CC2)cc1` [Compound 1a, 5-[[4-(4-chlorophenyl)piperazin-1-yl]methyl]-1H-indole], the concentration for half-maximal inhibition (IC50) in assay [1] was 7.5 nM; on dopamine D2 receptor, 1700 nM.
For `COc1ccc(N2CCN(Cc3ccc4[nH]ccc4c3)CC2)cc1` [Compound 1c, 5-[[4-(4-methoxyphenyl)piperazin-1-yl]methyl]-1H-indole], in that order: 25 nM and above 10000 nM.
